ChEMBL document CHEMBL1151469, “Cytotoxic activity of N-chlorotaurine on Acanthamoeba spp” (Antimicrob Agents Chemother, 2008)
pEC50: −log10 of the molar value. The source made the active and inactive calls. No cut-off for these calls is given here.

Legend:
Acanthamoeba hatchetti [1] = test: Amoebicidal activity against excysted trophozoites of Acanthamoeba hatchetti 11DS at 55 mM in peptone yeast extract glucose medium after 4 days by hemocytometer using trypan blue stain; format: functional
Acanthamoeba castellanii [2] = test: Amoebicidal activity against excysted trophozoites of Acanthamoeba castellanii 4CL at 55 mM in peptone yeast extract glucose medium after 11 days by hemocytometer using trypan blue stain; format: functional
Acanthamoeba hatchetti [3] = test: Amoebicidal activity against Trophozoites of Acanthamoeba hatchetti 11DS in phosphate buffered saline at pH 7 after 1 hr by hemocytometer using trypan blue stain in presence of 34 mM ammonium chloride; format: functional, organism-based
Acanthamoeba polyphaga [4] = test: Amoebicidal activity against Trophozoites of Acanthamoeba polyphaga 5SU in peptone yeast extract glucose medium at pH 7 after 6 hrs by hemocytometer using trypan blue stain in presence of 68 mM ammonium chloride; format: functional, organism-based
Acanthamoeba hatchetti [5] = test: Amoebicidal activity against Trophozoites of Acanthamoeba hatchetti 11DS in phosphate buffered saline at pH 7 after 6 hrs by hemocytometer using trypan blue stain in presence of 34 mM ammonium chloride; format: functional, organism-based
Acanthamoeba hatchetti [6] = test: Amoebicidal activity against Trophozoites of Acanthamoeba hatchetti 11DS at 55 mM in phosphate buffered saline at pH 7 after 1 hr by hemocytometer using trypan blue staining in presence of 190 mM ammonium chloride; format: functional, organism-based
Acanthamoeba polyphaga [7] = test: Amoebicidal activity against Trophozoites of Acanthamoeba polyphaga 5SU assessed as complete killing time at 55 mM in phosphate buffered saline at pH 7 after 6 hrs by hemocytometer using trypan blue stain in presence of 190 mM ammonium chloride; format: functional, organism-based
Acanthamoeba polyphaga [8] = test: Amoebicidal activity against Trophozoites of Acanthamoeba polyphaga 5SU in peptone yeast extract glucose medium at pH 7 after 24 hrs by hemocytometer using trypan blue stain; format: functional, organism-based
Acanthamoeba castellanii [9] = test: Amoebicidal activity against Trophozoites of Acanthamoeba castellanii 40AB assessed as log reduction in cell count at 20 mM in peptone yeast extract glucose medium at pH 7 after 24 hrs by hemocytometer using trypan blue stain; format: functional
Acanthamoeba hatchetti [10] = test: Amoebicidal activity against Trophozoites of Acanthamoeba hatchetti 11DS assessed as complete loss of viability at 55 mM in phosphate buffered saline after 24 hrs by hemocytometer using trypan blue stain in presence of 190 mM ammonium chloride; format: functional, organism-based
Acanthamoeba hatchetti [11] = test: Amoebicidal activity against Trophozoites of Acanthamoeba hatchetti 11DS assessed as reduction of killing time at 10 mM in phosphate buffered saline at pH 5 by hemocytometer using trypan blue stain in presence of 34 mM ammonium chloride; format: functional, organism-based
Acanthamoeba hatchetti [12] = test: Amoebicidal activity against Trophozoites of Acanthamoeba hatchetti 11DS in phosphate buffered saline at pH 7 after 6 hrs by hemocytometer using trypan blue stain; format: functional, organism-based
Acanthamoeba polyphaga [13] = test: Amoebicidal activity against Trophozoites of Acanthamoeba polyphaga 5SU in peptone yeast extract glucose medium at pH 7 after 1 hr by hemocytometer using trypan blue stain; format: functional, organism-based
Acanthamoeba hatchetti [14] = test: Amoebicidal activity against Trophozoites of Acanthamoeba hatchetti 11DS assessed as log reduction in cell count at 10 mM in phosphate buffered saline at pH 5 after 24 hrs by hemocytometer using trypan blue stain in presence of 34 mM ammonium chloride; format: functional, organism-based
Acanthamoeba castellanii [15] = test: Amoebicidal activity against excysted trophozoites of Acanthamoeba castellanii 4CL at 55 mM in peptone yeast extract glucose medium after 6 days by hemocytometer using trypan blue stain; format: functional
Acanthamoeba hatchetti [16] = test: Amoebicidal activity against Trophozoites of Acanthamoeba hatchetti 11DS assessed as reduction in cell count at 10 mM in phosphate buffered saline at pH 7 within 1 hr by hemocytometer using trypan blue stain in presence of 290 mM ammonium chloride; format: functional, organism-based
Acanthamoeba polyphaga [17] = test: Amoebicidal activity against Trophozoites of Acanthamoeba polyphaga 5SU assessed as complete loss of viability at 55 mM in phosphate buffered saline incubated in xenic agar medium after 14 days by hemocytometer using trypan blue stain in presence of 190 mM ammonium chloride; format: functional, organism-based
Acanthamoeba polyphaga [18] = test: Amoebicidal activity against Trophozoites of Acanthamoeba polyphaga 5SU assessed as killing time at 0.16 M in peptone yeast extract glucose medium at pH 7 by hemocytometer using trypan blue stain; format: functional
Acanthamoeba hatchetti [19] = test: Amoebicidal activity against Trophozoites of Acanthamoeba hatchetti 11DS assessed as rounding of the cells at 0.16 M in peptone yeast extract glucose medium at pH 7 by hemocytometer using trypan blue stain; format: functional, organism-based
Acanthamoeba hatchetti [20] = test: Amoebicidal activity against Trophozoites of Acanthamoeba hatchetti 11DS assessed as log reduction in cell count at 10 mM in phosphate buffered saline at pH 7 after 6 hrs by hemocytometer using trypan blue stain; format: functional
Acanthamoeba hatchetti [21] = test: Amoebicidal activity against Trophozoites of Acanthamoeba hatchetti 11DS assessed as log reduction in cell count at 20 mM in peptone yeast extract glucose medium at pH 7 after 6 hrs by hemocytometer using trypan blue stain; format: functional, organism-based
Acanthamoeba hatchetti [22] = test: Amoebicidal activity against Trophozoites of Acanthamoeba hatchetti 11DS assessed as log reduction in cell count at 10 mM in phosphate buffered saline at pH 5 after 24 hrs by hemocytometer using trypan blue stain; format: functional, organism-based
Acanthamoeba hatchetti [23] = test: Amoebicidal activity against Trophozoites of Acanthamoeba hatchetti 11DS in peptone yeast extract glucose medium at pH 7 after 24 hrs by hemocytometer using trypan blue stain; format: functional, organism-based
Acanthamoeba hatchetti [24] = test: Amoebicidal activity against Trophozoites of Acanthamoeba hatchetti 11DS assessed as rounding of the cells at 55 mM in peptone yeast extract glucose medium at pH 7 after 30 mins by hemocytometer using trypan blue stain; format: functional, organism-based
Acanthamoeba polyphaga [25] = test: Amoebicidal activity against excysted trophozoites of Acanthamoeba polyphaga 5SU at 55 mM in peptone yeast extract glucose medium after 4 days by hemocytometer using trypan blue stain; format: functional
Acanthamoeba polyphaga [26] = test: Amoebicidal activity against Trophozoites of Acanthamoeba polyphaga 5SU assessed as log reduction in cell count at 10 mM in phosphate buffered saline at pH 5 after 1 hr by hemocytometer using trypan blue stain in presence of 34 mM ammonium chloride; format: functional, organism-based
Acanthamoeba polyphaga [27] = test: Amoebicidal activity against excysted trophozoites of Acanthamoeba polyphaga 5SU at 55 mM in peptone yeast extract glucose medium after 11 days by hemocytometer using trypan blue stain; format: functional
Acanthamoeba hatchetti [28] = test: Amoebicidal activity against excysted trophozoites of Acanthamoeba hatchetti 11DS at 55 mM in peptone yeast extract glucose medium after 11 days by hemocytometer using trypan blue stain; format: functional
Acanthamoeba polyphaga [29] = test: Amoebicidal activity against Trophozoites of Acanthamoeba polyphaga 5SU assessed as log reduction in cell count at 10 mM in phosphate buffered saline at pH 5 after 6 hrs by hemocytometer using trypan blue stain in presence of 34 mM ammonium chloride; format: functional, organism-based
Acanthamoeba hatchetti [30] = test: Amoebicidal activity against Trophozoites of Acanthamoeba hatchetti 11DS assessed as killing time at 0.16 M in peptone yeast extract glucose medium at pH 7 by hemocytometer using trypan blue stain; format: functional
Acanthamoeba hatchetti [31] = test: Amoebicidal activity against Trophozoites of Acanthamoeba hatchetti 11DS in peptone yeast extract glucose medium at pH 7 after 6 hrs by hemocytometer using trypan blue stain; format: functional, organism-based
Acanthamoeba polyphaga [32] = test: Amoebicidal activity against Trophozoites of Acanthamoeba polyphaga 5SU assessed as reduction in cell count at 20 mM in peptone yeast extract glucose medium at pH 7 after 6 hrs by hemocytometer using trypan blue stain in presence of 580 mM ammonium chloride; format: functional, organism-based
Acanthamoeba hatchetti [33] = test: Amoebicidal activity against Trophozoites of Acanthamoeba hatchetti 11DS assessed as killing time at 55 mM in peptone yeast extract glucose medium at pH 7 by hemocytometer using trypan blue stain; format: functional
Acanthamoeba hatchetti [34] = test: Amoebicidal activity against Trophozoites of Acanthamoeba hatchetti 11DS in phosphate buffered saline at pH 7 after 24 hrs by hemocytometer using trypan blue stain; format: functional, organism-based

`O=S(=O)(O)CCNCl` gave an Activity (Acanthamoeba hatchetti [1]) of 100000, an Activity (Acanthamoeba castellanii [2]) of 100000 and a pEC50 (Acanthamoeba hatchetti [3]) of 1.89. The pEC50 (Acanthamoeba polyphaga [4]) was 1.89, the pEC50 (Acanthamoeba hatchetti [5]) was 2.28 and the EC90 (Acanthamoeba hatchetti [5]) was 9.13 mM. The Activity (Acanthamoeba hatchetti [6]) was “inactive”, the Activity (Acanthamoeba polyphaga [7]) was “Active” and the pEC50 (Acanthamoeba polyphaga [8]) was 2.09. For the same compound, the Activity (Acanthamoeba castellanii [9]) was 2, the Activity (Acanthamoeba hatchetti [10]) was “Active” and the Activity (Acanthamoeba hatchetti [11]) was “inactive”. For the same compound, the pEC50 (Acanthamoeba hatchetti [12]) was 2.41, the EC90 (Acanthamoeba hatchetti [12]) was 7.71 mM and the pEC50 (Acanthamoeba polyphaga [13]) was 1.64. For the same compound, the Activity (Acanthamoeba hatchetti [14]) was “inactive”, the Activity (Acanthamoeba castellanii [15]) was 7200 and the Activity (Acanthamoeba hatchetti [16]) was “Active”. For the same compound, the Activity (Acanthamoeba polyphaga [17]) was “inactive”, the Activity (Acanthamoeba polyphaga [18]) was 30 min and the Activity (Acanthamoeba hatchetti [19]) was “Active”. The Activity (Acanthamoeba hatchetti [20]) was 2, the Activity (Acanthamoeba hatchetti [21]) was “Active” and the Activity (Acanthamoeba hatchetti [22]) was “Active”. For the same compound, the pEC50 (Acanthamoeba hatchetti [23]) was 2.13, the Activity (Acanthamoeba hatchetti [24]) was “Active” and the Activity (Acanthamoeba polyphaga [25]) was 8000. For the same compound, the Activity (Acanthamoeba polyphaga [26]) was “Active”, the Activity (Acanthamoeba polyphaga [27]) was 200000 and the Activity (Acanthamoeba hatchetti [28]) was 410000. The Activity (Acanthamoeba polyphaga [29]) was “Active”, the Activity (Acanthamoeba hatchetti [30]) was 1 h and the pEC50 (Acanthamoeba hatchetti [31]) was 2.04. For the same compound, the Activity (Acanthamoeba polyphaga [32]) was “Active”, the Activity (Acanthamoeba hatchetti [33]) was 3 h and the pEC50 (Acanthamoeba hatchetti [34]) was 2.44. For the same compound, the EC90 (Acanthamoeba hatchetti [34]) was 7.56 mM.
